Where two headings read alike, the source gives them in different places.
Tests used:
SF3b complexes = target: T1, SF3b complexes (Homo sapiens, UniProt O75533+Q7RTV0); experiment: Scintillation proximity assay (SPA) with [3H]-labelled pladienolide probe; assay type: binding; conditions: SF3B1 (WT); geometric mean; read-out: SPA-ATS GMean IC50 (nM) SF3B1 (WT)
T1 construct: endogenous in cells; host or cells: Nuclear extracts; A HeLa S3 extract preparation is described for the in vitro splicing assay
How it was run: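 SF3b complexes captured from nuclear extracts on anti-SF3B1 antibody SPA beads; test compounds pre-incubated 30 min before 2.5 nM [3H]-pladienolide probe added, then 30 min incubation. Bound probe read by scintillation; values from non-linear regression of concentration–response curves.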

[1] = tested on: Ad2 variant pre-mRNAs spliced in HeLa S3 nuclear extracts; experiment: In vitro splicing assay (IVS), RT-qPCR of spliced product; assay type: biochemical; conditions: for IC50: geometric mean; for Ratio Ad2.1/2.2: ratio of IVS IC50 Ad2.1 to Ad2.2
How it was run: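 Read-out is one-step TaqMan RT-qPCR of spliced Ad2 mRNA with Ftz as reference, normalized to DMSO and fit by non-linear regression. Reactions held HeLa S3 nuclear extract, 2 ng Ad2-derived pre-mRNA and test compound, with 15 min preincubation. Splicing was started with ATP-containing activation buffer and run 90 min at 30 °C.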

[2] = tested on: NCI-H1568 cells (high MCL1); experiment: Cell proliferation and viability, CellTiter-Glo, 72 hours; assay type: cell-based; conditions: for GI50: geometric mean
How it was run: (§1)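 RPMI-1640/10% FBS (Panc: + insulin, FBS 15%); 11-pt half-log dose, ~10 μM-100 pM, 0.1% DMSO; 37° C, 5% CO2; ATP luminescence read; % inhibition vs T0 and vehicle, −100% cidal to 100% uninhibited growth.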

[3] = tested on: Panc 05.04 cells (SF3b K700E mutant); experiment: as above; assay type: cell-based; conditions: for GI50: geometric mean
How it was run: as §1

[4] = Ad2.1 pre-mRNA substrate, read-out: qPCR-IVS-ATS GMean IC50 (nM) Ad2.1
[5] = Ad2.2 pre-mRNA substrate, read-out: qPCR-IVS-ATS GMean IC50 (nM) Ad2.2
[6] = 72 h, NCIH1568.1, -100% = cidal, 0% = static, 100% = uninhibited growth
[7] = NCI-H1568, 72 h, read-out: CTGlo-ATS GMean GI50 (nM) 72 h NCIH1568.1, 72 h, NCIH1568.1
[8] = 72 h, PANC0504.1, -100% = cidal, 0% = static, 100% = uninhibited growth
[9] = Panc 05.04, 72 h, read-out: CTGlo-ATS GMean GI50 (nM) 72 h PANC0504.1, 72 h, PANC0504.1
[10] = NCI-H1568, read-out: CTGlo-ATS GMean GI50 (nM) 72 h NCIH1568.1, NCIH1568.1 cells, 72 h
[11] = NCIH1568.1 cells, 72 h, −100% cidal, 0% static, 100% maximal growth
[12] = PANC0504.1 cells, 72 h, −100% cidal, 0% static, 100% maximal growth
[13] = Panc 05.04, read-out: CTGlo-ATS GMean GI50 (nM) 72 h PANC0504.1, PANC0504.1 cells, 72 h
[14] = NCI-H1568, read-out: CTGlo-ATS GMean GI50 (nM) 72 h NCIH1568.1, 72 h, NCIH1568.1
[15] = Panc 05.04, read-out: CTGlo-ATS GMean GI50 (nM) 72 h PANC0504.1, 72 h, PANC0504.1
[16] = NCI-H1568, 72 h, read-out: CTGlo-ATS GMean GI50 (nM) 72 h NCIH1568.1, NCIH1568.1 cells, 72 h
[17] = Panc 05.04, 72 h, read-out: CTGlo-ATS GMean GI50 (nM) 72 h PANC0504.1, PANC0504.1 cells, 72 h

| SMILES | IC50 (SF3b complexes) [nM] | IC50 [1, 4] [nM] | IC50 [1, 5] [nM] | Ratio Ad2.1/2.2 [1] | CTGlo-ATS Mean MinResponse % 72 h NCIH1568.1 [2, 6] [%] | GI50 [2, 7] [nM] | CTGlo-ATS Mean MinResponse % 72 h PANC0504.1 [3, 8] [%] | GI50 [3, 9] [nM] | GI50 [2, 10] [nM] | CTGlo-ATS Mean MinResponse % 72 h NCIH1568.1 [2, 11] [%] | CTGlo-ATS Mean MinResponse % 72 h PANC0504.1 [3, 12] [%] | GI50 [3, 13] [nM] | GI50 [2, 14] [nM] | GI50 [3, 15] [nM] | GI50 [2, 16] [nM] | GI50 [3, 17] [nM] |
| --- | --- | --- | --- | --- | --- | --- | --- | --- | --- | --- | --- | --- | --- | --- | --- | --- |
| C/C(=C\c1cccc(N(C)C)c1)[C@H]1OC(=O)C[C@H](O)CC[C@H](C)[C@@H](OC(=O)N2CCN(C)CC2)/C=C/[C@@H]1C [Compound 265] | 5.3 | > 25000 | 71.6 | 349.0 | −9.0 | 47.5 | 25.1 | 36.7 |  |  |  |  |  |  |  |  |
| C/C(=C\c1ccnc(N2CCOCC2)c1)[C@H]1OC(=O)C[C@H](O)CC[C@H](C)[C@@H](OC(=O)N2CCN(C)CC2)/C=C/[C@@H]1C [Compound 6] | 8.85 | > 25000 | 75.3 |  |  |  |  |  | 29.1 | −17.149 | −88.664 | 15.7 |  |  |  |  |
| C/C(=C\c1cc(F)cc(N2CCN(S(=O)(=O)C3COC3)CC2)c1)[C@H]1OC(=O)C[C@H](O)CC[C@H](C)[C@@H](OC(=O)N2CCN(C)CC2)/C=C/[C@@H]1C [Compound 125] | 5.06 | 17.6 | 14.9 |  |  |  |  |  | 4.51 | −83.586 | −83.226 | 6.76 |  |  |  |  |
| COc1ccc(S(=O)(=O)N2CCN(c3cc(F)cc(/C=C(\C)[C@H]4OC(=O)C[C@H](O)CC[C@H](C)[C@@H](OC(=O)N5CCN(C)CC5)/C=C/[C@@H]4C)c3)CC2)cc1 [Compound 110] | 42.1 | 142 | 63.2 |  |  |  |  |  | 40.9 | −93.755 | −74.667 | 41.8 |  |  |  |  |
| C/C(=C\c1cc(F)cc(N2CCOCC2)c1)[C@H]1OC(=O)C[C@H](O)CC[C@H](C)[C@@H](OC(=O)N2CCN(C)C(C)(C)C2)/C=C/[C@@H]1C [Compound 246, [(2S,3S,4E,6R,7S,10R)-2-[(E)-1-(3-fluoro-5-morpholin-4-ylphenyl)prop-1-en-2-yl]-10-hydroxy-3,7-dimethyl-12-oxo-1-oxacyclododec-4-en-6-yl] 3,3,4-trimethylpiperazine-1-carboxylate] | 5.8 | 279 | 36.1 | 7.730 | −68.331 |  | −95.467 |  |  |  |  |  | 12.1 | 16.5 |  |  |
| C/C(=C\c1cc(F)cc(N2CCOCC2)c1)[C@H]1OC(=O)C[C@H](O)CC[C@H](C)[C@@H](OC(=O)N2CCN(CCO)CC2)/C=C/[C@@H]1C [Compound 21] | 10.3 | 1610 | 52.3 |  |  |  |  |  | 31.2 | −50.841 | −90.919 | 23.6 |  |  |  |  |
| C/C(=C\c1cc(F)cc(N2CCOC[C@@H]2CO)c1)[C@H]1OC(=O)C[C@H](O)CC[C@H](C)[C@@H](OC(=O)N2CCN(C)CC2)/C=C/[C@@H]1C [Compound 77] | 1.78 | 16.1 | 13.3 |  |  |  |  |  | 1.79 | −82.189 | −86.524 | 3.9 |  |  |  |  |
| C/C(=C\c1cccc(N2CCN(C)CC2)c1)[C@H]1OC(=O)C[C@H](O)CC[C@H](C)[C@@H](OC(=O)N2CCN(C)CC2)/C=C/[C@@H]1C [Compound 2] | 14.7 | 29.3 | 24.8 |  |  |  |  |  | 40.6 | −70.665 | −76.626 | 30.3 |  |  |  |  |
| C/C(=C\c1cc(F)c2cnn(CC3CC3)c2c1)[C@H]1OC(=O)C[C@H](O)CC[C@H](C)[C@@H](OC(=O)N2CCN(C)CC2)/C=C/[C@@H]1C [Compound 87, [(2S,3S,4E,6R,7S,10R)-2-[(E)-1-[1-(cyclopropylmethyl)-4-fluoroindazol-6-yl]prop-1-en-2-yl]-10-hydroxy-3,7-dimethyl-12-oxo-1-oxacyclododec-4-en-6-yl] 4-methylpiperazine-1-carboxylate] | 4.98 | 62.7 | 27 |  |  |  |  |  | 3.68 | −85.463 | −79.550 | 4.19 |  |  |  |  |
| C/C(=C\c1cc(F)cc(N2CCOCC2)c1)[C@H]1OC(=O)C[C@H](O)CC[C@H](C)[C@@H](OC(=O)N2CCN(C(C)(C)C)CC2)/C=C/[C@@H]1C [Compound 25] | 4.94 | 430 | 46.4 |  |  |  |  |  | 20.6 | −49.158 | −88.378 | 20.5 |  |  |  |  |
| C/C(=C\c1cc(F)cc(N2CCOCC2)c1)[C@H]1OC(=O)C[C@H](O)CC[C@H](C)[C@@H](OC(=O)NCCCN2CCOCC2)/C=C/[C@@H]1C [Compound 241, [(2S,3S,4E,6R,7S,10R)-2-[(E)-1-(3-fluoro-5-morpholin-4-ylphenyl)prop-1-en-2-yl]-10-hydroxy-3,7-dimethyl-12-oxo-1-oxacyclododec-4-en-6-yl] N-(3-morpholin-4-ylpropyl)carbamate] | 20.5 | > 25000 | 130 | 191.917 | −59.521 | 225 | −88.873 | 120 |  |  |  |  |  |  |  |  |
| C/C(=C\c1cc(F)cc(N2CCOC(C)C2)c1)[C@H]1OC(=O)C[C@H](O)CC[C@H](C)[C@@H](OC(=O)N2CCN(C)CC2)/C=C/[C@@H]1C (some centres unmarked) [Compound 70] | 1.55 | 17.6 | 16.5 |  |  |  |  |  |  | −77.042 | −83.969 |  |  |  | 3.37 | 5.94 |
| C/C(=C\c1cccc(S(=O)(=O)N2CCC(F)(F)C2)c1)[C@H]1OC(=O)C[C@H](O)CC[C@H](C)[C@@H](OC(=O)N2CCN(C)CC2)/C=C/[C@@H]1C [Compound 204, [(2S,3S,4E,6R,7S,10R)-2-[(E)-1-[3-(3,3-difluoropyrrolidin-1-yl)sulfonylphenyl]prop-1-en-2-yl]-10-hydroxy-3,7-dimethyl-12-oxo-1-oxacyclododec-4-en-6-yl] 4-methylpiperazine-1-carboxylate] | 23.5 |  |  |  | −24.924 |  | −94.081 |  |  |  |  |  | 81.9 | 82 |  |  |
| C/C(=C\c1cc(F)cc(N2CCN(S(=O)(=O)c3cnn(C)c3)CC2)c1)[C@H]1OC(=O)C[C@H](O)CC[C@H](C)[C@@H](OC(=O)N2CCN(C)CC2)/C=C/[C@@H]1C [Compound 111] | 28 |  |  |  |  |  |  |  |  | −81.303 | −71.803 |  |  |  | 12.8 | 13.9 |
| C/C(=C\c1cccc(COC(=O)N2CCC3(COC3)C2)c1)[C@H]1OC(=O)C[C@H](O)CC[C@H](C)[C@@H](OC(=O)N2CCN(C)CC2)/C=C/[C@@H]1C [Compound 255, [3-[(E)-2-[(2S,3S,4E,6R,7S,10R)-10-hydroxy-3,7-dimethyl-6-(4-methylpiperazine-1-carbonyl)oxy-12-oxo-1-oxacyclododec-4-en-2-yl]prop-1-enyl]phenyl]methyl 2-oxa-7-azaspiro[3.4]octane-7-carboxylate] | 7.32 |  |  |  | −24.942 |  | −61.401 |  |  |  |  |  | 67.6 | 65.8 |  |  |
| C/C(=C\c1cc(F)cc(N2CCN(S(=O)(=O)c3cccnc3)CC2)c1)[C@H]1OC(=O)C[C@H](O)CC[C@H](C)[C@@H](OC(=O)N2CCN(C)CC2)/C=C/[C@@H]1C [Compound 112] | 12.8 |  |  |  |  |  |  |  | 6.23 | −86.973 | −80.066 | 8.29 |  |  |  |  |
